Article PMC8006935, “Study of Combinatorial Drug Synergy of Novel Acridone Derivatives With Temozolomide Using in-silico and in-vitro Methods in the Treatment of Drug-Resistant Glioma” (Frontiers in Oncology, 2021)
Like-named read-outs stand apart in the source and are kept apart here.

Tests used:
[1] = test system: T-98 (Temozolomide resistant) Glioma cell lines; experiment: Sulforhodamine B assay, T-98 TMZ resistant Glioma cells; format: cell-based; conditions: for IC50: Glioma cell; for T-98/TMZRES SI: SI = CC50 of Vero cell line /IC50 of Cancer cell line after 72 h
Method: (§1) In order to test the growth inhibition potential of the TMZ and Acridone derivatives on Glioma, the U-87 (Uppsala 87) Glioma cell lines and T-98 (Temozolomide resistant) Glioma cell lines were treated with Temozolomide (TMZ) and Acridone derivatives AC2, AC7, and AC26. The African Green Monkey Kidney Vero cell lines were used as control for the study. The Vero cell lines were obtained from the National Center for Cell Sciences (NCCS), Pune, while the U-87 and T-98 cell lines were carried in the lab of Dr. GJ Peters, Cancer Center Amsterdam (CCA), VU University Medical Center, Amsterdam, Netherlands. The Mycoplasma testing was done by using the Universal Mycoplasma Detection Kit (ATCC® 30-1012K™) every 6 months. The Vero cell lines have been used as control as they are normal kidney epithelial cells and are non-cancerous in nature. The Vero cell lines have been routinely used for testing cytotoxicity of small molecules by various researchers ([22], [23]). Also, in our previous study, Vero cell lines have been used for testing safety and efficacy of Acridone derivatives for Lung, Cervical, and Breast Cancer studies ([13]).
(§2) Cell viability was found using the Sulforhodamine B (SRB) assay to measure the cellular protein content which provides better sensitivity in comparison to MTT assay ([24]). Moreover, as this method is dependent on the property of the SRB dye, it acts by binding to proteins under slightly acidic conditions and can be exposed to basic conditions for its extraction. The resulting amount of bound dye is then utilized as a proxy for cell mass ([25]). This cell mass can then be extrapolated to measure cell growth.
(§3) Glioma cells were cultured in Gibco (RPMI 1640) complemented with 10% fetal calf serum (Gibco). The cultures were then treated with trypsin-EDTA in order to detach/separate the cells from their culture flasks. The quickly proliferating cells were harvested, counted and plated at suitable concentrations in 96-well microplates. These microplates were subsequently incubated for 24 h. After incubation, drug compounds were dissolved in the culture media and placed in 96 well plates in triplicates, which were again incubated at 37°C under 5% CO2 for 72 h. 72 h later, the plates were removed and the cells were treated with cold Trichloroacetic acid (TCA) to fix the cultures and. 0.4% of SRB dissolved in 1% acetic acid was then added to the culture in order to stain the cells. Next, the bound stain was dissolved in 150 μl of 10 mM unbuffered Tris base left on a gyrator shaker. Thereafter, absorbance of the solution was measured at 540 nm utilizing a microplate reader. Absorbance readings (triplicate values) recorded were used to calculate percentage growth inhibition due to the effect of drugs using the following equations.
(§4) % Cell growth = Absorbance sample/Absorbance of control or untreated × 100
(§5) % Growth inhibition = 100 - % cell growth
(§6) The IC50 was calculated based on the log graph sheet which was developed in-house at the CCA, VU University Medical Center.
(§7) Selectivity Index (SI) is a ratio that measures the window between cytotoxicity and anticancer activity of the drugs ([26]). […] Here, IC50 is the inhibition concentration for inhibiting 50% of cancer cells and CC50 is cytotoxic concentration causing death of 50% viable cells in the host.

[2] = test system: Drug resistant cancer cells (CR), T-98; experiment: Mathematical tumor growth model simulation and Bliss synergy, drug resistant cancer cells
[3] = design: method as in PMID 21565270; conditions: cited from earlier work
[4] = test system: U-87 (Uppsala 87) Glioma cell lines; experiment: Sulforhodamine B assay, U-87 drug sensitive Glioma cells; format: cell-based; conditions: for U-87/WT SI: SI = CC50 of Vero cell line /IC50 of Cancer cell line after 72 h; for IC50: U87WT, 72 h, SRB, Mean ± Standard Deviations in Table 4, read-out: U-87/WT IC50
Method: as §1, §2, §3, §4, §5, §6, §7

[5] = Acute Oral Toxicity - Fixed Dose procedure; format: in vivo; conditions: for clinical sign of toxicity: oral, single dose, 14 days observation, female albino Wistar rats
Method: Animal study was conducted for acridone derivatives AC2, AC7, and AC26 alone and in combination with Temozolomide for Acute Oral Toxicity - Fixed Dose procedure. The Institutional Animal Ethics Committee bearing CPCSEA/IAEC/P-52/2016 was approved for undertaking the study. Acute oral toxicity was conducted on female albino Wistar rats for 8–12 weeks and were maintained at 25 ± 2 °C in a conditioned room with 50–60% of humidity and free access to food and water was given. Rats were kept for fasting overnight (12 h) before dosing and weights were recorded periodically. Rats in two groups were given acridone derivatives alone at a dose of […], rats in two groups were given a combination of Temozolomide : acridone derivatives at dose of 10:1 mg/kg and 15:1.5 mg/kg body weight and one group was kept as control. Dose of Temozolomide was taken as per previously published article ([50]). Compounds alone and combination were suspended in 2.0% of Tween 80 in normal saline and control group was taken for vehicle only. After administering the compound, food was not provided for 3 h. All the rats were monitored periodically for 1 h upto 12 h on the 1st day and thereafter twice in a day for mortality, behavioral changes, signs and symptoms of toxicity for 14 days. Individual weights of rats were taken for all the 14 days and study was conducted twice for each dose.

[6] = earlier studies, no reference given; cited from earlier work
[7] = 72 h, SRB, Mean ± Standard Deviations in Table 4, read-out: T-98/TMZRES IC50
[8] = drug administered individually, drug resistant cells, read-out: Initial IC50

O=C(NN=Cc1ccccc1Cl)c1cccc2c(=O)c3ccccc3[nH]c12 [AC7, N'-(2-chlorobenzylidene)-9-oxo-9,10-dihydroacridine-4-carbohydrazide]
IC50 [1, 7]: 1050 ± 180 nM
IC50 [1, 8]: 1050 nM
T-98/TMZRES SI [1]: 45.87
% fold change [(final-initial)/initial]*100 ([2]; combination TMZ + AC7): 8.5%
Fold change = final IC50/initial IC50 ([2]; combination TMZ + AC7): 0.91
cytotoxicity in comparison to the other acridone derivatives [3]: 100 times
U-87/WT SI [4]: 8.49
IC50 [4]: 5670 ± 580 nM
Body weight (g) Day 0 ([5]; 300 mg/kg oral): 175 ± 10 g
Body weight (g) Day 1 ([5]; 300 mg/kg oral): 176 ± 14 g
Body weight (g) Day 2 ([5]; 300 mg/kg oral): 178 ± 10 g
Body weight (g) Day 3 ([5]; 300 mg/kg oral): 181 ± 8 g
Body weight (g) Day 4 ([5]; 300 mg/kg oral): 183 ± 12 g
Body weight (g) Day 5 ([5]; 300 mg/kg oral): 185 ± 15 g
Body weight (g) Day 6 ([5]; 300 mg/kg oral): 188 ± 11 g
Body weight (g) Day 7 ([5]; 300 mg/kg oral): 192 ± 12 g
Body weight (g) Day 8 ([5]; 300 mg/kg oral): 194 ± 12 g
Body weight (g) Day 9 ([5]; 300 mg/kg oral): 196 ± 14 g
Body weight (g) Day 10 ([5]; 300 mg/kg oral): 195 ± 11 g
Body weight (g) Day 11 ([5]; 300 mg/kg oral): 197 ± 16 g
Body weight (g) Day 12 ([5]; 300 mg/kg oral): 199 ± 12 g
Body weight (g) Day 13 ([5]; 300 mg/kg oral): 202 ± 10 g
Body weight (g) Day 14 ([5]; 300 mg/kg oral): 205 ± 18 g
Body weight (g) Day 0 ([5]; 2000 mg/kg oral): 180 ± 8 g
Body weight (g) Day 1 ([5]; 2000 mg/kg oral): 181 ± 12 g
Body weight (g) Day 2 ([5]; 2000 mg/kg oral): 183 ± 8 g
Body weight (g) Day 3 ([5]; 2000 mg/kg oral): 185 ± 14 g
Body weight (g) Day 4 ([5]; 2000 mg/kg oral): 187 ± 6 g
Body weight (g) Day 5 ([5]; 2000 mg/kg oral): 189 ± 11 g
Body weight (g) Day 6 ([5]; 2000 mg/kg oral): 192 ± 16 g
Body weight (g) Day 7 ([5]; 2000 mg/kg oral): 193 ± 15 g
Body weight (g) Day 8 ([5]; 2000 mg/kg oral): 197 ± 10 g
Body weight (g) Day 9 ([5]; 2000 mg/kg oral): 198 ± 18 g
Body weight (g) Day 10 ([5]; 2000 mg/kg oral): 201 ± 8 g
Body weight (g) Day 11 ([5]; 2000 mg/kg oral): 204 ± 10 g
Body weight (g) Day 12 ([5]; 2000 mg/kg oral): 206 ± 14 g
Body weight (g) Day 13 ([5]; 2000 mg/kg oral): 208 ± 12 g
Body weight (g) Day 14 ([5]; 2000 mg/kg oral): 211 ± 16 g
clinical sign of toxicity [5]: No clinical sign of toxicity was observed
cardiotoxicity, nephrotoxicity and necrosis [6]: no cardiotoxicity, nephrotoxicity and necrosis
liver histopathology [6]: minimal hyperchromatic, anaplasia, and cellular infiltration

O=C(NN=CC=Cc1ccccc1)c1cccc2c(=O)c3ccccc3[nH]c12 [AC2, 9-oxo-N'-(3-phenylallylidene)-9,10-dihydroacridine-4-carbohydrazide]
IC50 [1, 7]: 1530 ± 250 nM
IC50 [1, 8]: 1530 nM
T-98/TMZRES SI [1]: 36.73
% fold change [(final-initial)/initial]*100 ([2]; combination TMZ + AC2): 3.26%
Fold change = final IC50/initial IC50 ([2]; combination TMZ + AC2): 0.96
cytotoxicity in comparison to the other acridone derivatives [3]: 100 times
U-87/WT SI [4]: 36.73
IC50 [4]: 1530 ± 850 nM
Body weight (g) Day 0 ([5]; 300 mg/kg oral): 185 ± 6 g
Body weight (g) Day 1 ([5]; 300 mg/kg oral): 186 ± 12 g
Body weight (g) Day 2 ([5]; 300 mg/kg oral): 189 ± 10 g
Body weight (g) Day 3 ([5]; 300 mg/kg oral): 191 ± 15 g
Body weight (g) Day 4 ([5]; 300 mg/kg oral): 192 ± 12 g
Body weight (g) Day 5 ([5]; 300 mg/kg oral): 193 ± 22 g
Body weight (g) Day 6 ([5]; 300 mg/kg oral): 195 ± 12 g
Body weight (g) Day 7 ([5]; 300 mg/kg oral): 196 ± 10 g
Body weight (g) Day 8 ([5]; 300 mg/kg oral): 194 ± 12 g
Body weight (g) Day 9 ([5]; 300 mg/kg oral): 195 ± 10 g
Body weight (g) Day 10 ([5]; 300 mg/kg oral): 198 ± 15 g
Body weight (g) Day 11 ([5]; 300 mg/kg oral): 199 ± 16 g
Body weight (g) Day 12 ([5]; 300 mg/kg oral): 201 ± 10 g
Body weight (g) Day 13 ([5]; 300 mg/kg oral): 203 ± 6 g
Body weight (g) Day 14 ([5]; 300 mg/kg oral): 205 ± 18 g
Body weight (g) Day 0 ([5]; 2000 mg/kg oral): 173 ± 8 g
Body weight (g) Day 1 ([5]; 2000 mg/kg oral): 175 ± 11 g
Body weight (g) Day 2 ([5]; 2000 mg/kg oral): 176 ± 8 g
Body weight (g) Day 3 ([5]; 2000 mg/kg oral): 178 ± 12 g
Body weight (g) Day 4 ([5]; 2000 mg/kg oral): 180 ± 14 g
Body weight (g) Day 5 ([5]; 2000 mg/kg oral): 183 ± 15 g
Body weight (g) Day 6 ([5]; 2000 mg/kg oral): 185 ± 12 g
Body weight (g) Day 7 ([5]; 2000 mg/kg oral): 188 ± 16 g
Body weight (g) Day 8 ([5]; 2000 mg/kg oral): 190 ± 12 g
Body weight (g) Day 9 ([5]; 2000 mg/kg oral): 192 ± 16 g
Body weight (g) Day 10 ([5]; 2000 mg/kg oral): 195 ± 12 g
Body weight (g) Day 11 ([5]; 2000 mg/kg oral): 197 ± 8 g
Body weight (g) Day 12 ([5]; 2000 mg/kg oral): 199 ± 12 g
Body weight (g) Day 13 ([5]; 2000 mg/kg oral): 202 ± 15 g
Body weight (g) Day 14 ([5]; 2000 mg/kg oral): 206 ± 7 g
clinical sign of toxicity [5]: No clinical sign of toxicity was observed
cardiotoxicity, nephrotoxicity and necrosis [6]: no cardiotoxicity, nephrotoxicity and necrosis
liver histopathology [6]: minimal hyperchromatic, anaplasia, and cellular infiltration
